Measured values as given in patent US20060194699A1, “Sprayable non-aqueous, oil-continuous microemulsions and methods of making same” (priority 2003, published 2006).
Where two headings read alike, the source gives them in different places.

What was measured:
Solubility = assay type: physicochemical; details: 25° C. and pH 4.3
[1] = cited from earlier work
[2] = cited from earlier work; remark: listed apart in the source

| SMILES | solubility in water as equivalent PMG-acid (Solubility; per 1000 g water) | weight percent "acid" in the saturated solution (Solubility; saturated aqueous solution) | solubility in water ([1]; 25° C. and pH 4.3) | pKa (first of three printed) [2] | pKa (second of three printed) [2] | pKa (third of three printed) [2] | solubility in water ([1]; 25° C.) | solubility in common organic solvents ([1]; acetone, alcohol and xylene) |
| --- | --- | --- | --- | --- | --- | --- | --- | --- |
| CC(C)N.O=C(O)CNCP(=O)(O)O [isopropylamine salt of glyphosate] | 778 grams of equivalent PMG-acid per liter | 37.95% | 1050 grams of salt in a liter of water | – | – | – | – | – |
| O=C(O)CNCP(=O)(O)O [glyphosate, N-phosphonomethylglycine] | – | – | – | 2.74 | 5.63 | 10.18 | 11.6 grams per liter of water | insoluble |
